The text below walks through data of patent US4659691A, “Novel cyclic Hexapeptide LHRH antagonists” (Merck & Co., Inc., priority 1985, dated 1987).

Where a SMILES comes first, the peptide text is derived from it. [ ]: non-standard residue; d: D form.

For the assay, the system named is rat pituitary cells. Put plainly: Isolated rat pituitary cell culture system: antagonism of LH-RH-stimulated LH release. The class given is cell-based. The method, then:
Cyclic hexapeptides of the present invention are evaluated as antagonists of LH-RH in an in vitro pituitary cell culture system. This assay system is described in Vale and Brant, Methods Enzymol, 37, 82 (1975), hereby incorporated by reference for this purpose.
For purposes of illustration, the data for cyclo-[Tyr-D-Trp-Leu-Arg-Trp-Pro] (5) in this assay are presented.
At a dose range of 10^-5 to 10^-9 M, compound 5 was tested in combination with a single dose of LHRH (luteinizing hormone release hormone) on rat pituitary cells in vitro for 60 minutes.

Regarding `CC(C)C[C@@H]1NC(=O)[C@@H](Cc2c[nH]c3ccccc23)NC(=O)[C@H](Cc2ccc(O)cc2)NC(=O)[C@@H]2CCCN2C(=O)[C@H](Cc2c[nH]c3ccccc23)NC(=O)[C@H](CCCNC(=N)N)NC1=O` [Compound 5, cyclo-(Tyr-D-Trp-Leu-Arg-Trp-Pro)] (cyclo(LRWPY[dW])), the “reduction of LH release” value was “essentially ineffective” (all lower doses of compound 5 (below 10^-5 M) in the presence of 5×10^-7, 10^-7, 5×10^-8 and 10^-8 M LHRH); “significantly reduced LH release” (compound 5 at 10^-7, 10^-8 and 10^-9 M in the presence of 10^-6 M LHRH, 60 minutes). Moreover, where the note is “compound 5 at 10^-5 M, LHRH at 10^-6, 5×10^-7, 5×10^-8, 10^-8, 5×10^-9, 10^-9 and 5×10^-10 M, 60 minutes”, the “antagonism to LHRH” value is recorded as “significantly antagonistic”. Also, the “effect on LH release (compound alone)” value (compound 5 at 10^-7 M, no LHRH) is “does not affect LH release”. The “overall conclusion on LHRH antagonism” value (greatest antagonistic effect at lower doses of LHRH) is “antagonistic to LHRH”. Further, for the setting “in the presence of 5×10^-9, 10^-9 and 5×10^-10 M LHRH, greatest antagonism at 10^-9 M LHRH”, the “inhibition of LH release, dose relation” value was “significant dose related inhibition”.
